# Results taken from ChEMBL document CHEMBL4665787, “Bifunctional and Unusual Amino Acid β- or γ-Ester Prodrugs of Nucleoside Analogues for Improved Affinity to ATB and Enhanced Metabolic Stability: An Application to Floxuridine” (J Med Chem, 2020).
# The source made the active and inactive calls. No cut-off for these calls is given here.
# Legend:
# ZR-75-1 = assay: Potency index, ratio of FUdR GI50 to test compound GI50 for growth inhibition of human ZR-75-1 cells; type: functional
# [1] = biological target: T1, Sodium- and chloride-dependent neutral and basic amino acid transporter B(0+) (Homo sapiens, UniProt Q9UN76); assay: Substrate activity at SLC6A14 (unknown origin) expressed in Xenopus laevis oocytes assessed as ABT0+ mediated drug uptake at 0.5 mM incubated for 10 mins by HPLC analysis; type: ADME, cell-based; settings: oocyte, 500 µM
# T1 sequence (Q9UN76 whole entry): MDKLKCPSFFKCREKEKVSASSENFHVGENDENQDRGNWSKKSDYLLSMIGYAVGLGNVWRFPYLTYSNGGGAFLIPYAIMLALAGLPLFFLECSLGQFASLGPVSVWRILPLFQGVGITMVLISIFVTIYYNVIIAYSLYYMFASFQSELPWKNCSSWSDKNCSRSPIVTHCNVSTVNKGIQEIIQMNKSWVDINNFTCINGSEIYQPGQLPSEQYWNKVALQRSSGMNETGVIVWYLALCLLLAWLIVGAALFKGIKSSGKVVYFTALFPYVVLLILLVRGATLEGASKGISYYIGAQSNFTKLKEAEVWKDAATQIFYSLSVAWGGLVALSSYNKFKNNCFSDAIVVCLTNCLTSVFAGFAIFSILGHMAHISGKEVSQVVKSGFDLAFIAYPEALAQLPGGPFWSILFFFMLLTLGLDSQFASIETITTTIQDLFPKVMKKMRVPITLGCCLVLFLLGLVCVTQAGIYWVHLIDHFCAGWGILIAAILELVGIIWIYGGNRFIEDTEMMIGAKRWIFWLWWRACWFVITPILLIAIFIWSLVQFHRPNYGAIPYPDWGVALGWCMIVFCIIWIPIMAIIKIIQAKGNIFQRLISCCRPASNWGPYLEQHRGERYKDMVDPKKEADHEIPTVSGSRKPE
# [2] = Half life of compound in human ZR-75-1 cell homogenate; type: ADME, tissue-based
# [3] = biological target: T2, Solute carrier family 15 member 1 (Homo sapiens, UniProt P46059); assay: Substrate activity at PEPT1 (unknown origin) expressed in MDCK cells assessed as PEPT1 mediated drug uptake at 0.5 mM incubated for 10 mins by HPLC analysis; type: ADME, cell-based; settings: 500 µM
# T2 sequence (P46059 whole entry): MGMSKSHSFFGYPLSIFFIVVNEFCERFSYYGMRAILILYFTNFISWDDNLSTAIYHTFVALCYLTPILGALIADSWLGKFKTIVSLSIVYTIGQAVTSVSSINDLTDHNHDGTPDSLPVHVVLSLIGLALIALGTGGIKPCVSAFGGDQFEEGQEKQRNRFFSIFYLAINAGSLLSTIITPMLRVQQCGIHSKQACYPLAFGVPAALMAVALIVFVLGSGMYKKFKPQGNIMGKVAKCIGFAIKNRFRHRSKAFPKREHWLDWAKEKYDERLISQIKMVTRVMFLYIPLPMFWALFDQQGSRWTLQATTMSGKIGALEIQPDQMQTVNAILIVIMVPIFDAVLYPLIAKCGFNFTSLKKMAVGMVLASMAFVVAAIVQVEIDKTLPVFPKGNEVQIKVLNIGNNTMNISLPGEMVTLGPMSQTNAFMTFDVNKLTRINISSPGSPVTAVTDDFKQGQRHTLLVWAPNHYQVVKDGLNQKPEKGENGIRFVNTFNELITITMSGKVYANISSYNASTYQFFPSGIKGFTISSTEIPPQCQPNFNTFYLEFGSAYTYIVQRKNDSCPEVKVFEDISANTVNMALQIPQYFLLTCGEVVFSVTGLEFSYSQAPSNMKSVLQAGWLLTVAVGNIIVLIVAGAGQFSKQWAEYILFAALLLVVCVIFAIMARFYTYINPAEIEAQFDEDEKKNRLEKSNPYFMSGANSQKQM
# [4] = Half life of compound in human MIA PaCa-2 cell homogenate; type: ADME, tissue-based
# [5] = Drug uptake in MDCK cells incubated for 10 mins by HPLC analysis; type: ADME, cell-based, Canis lupus familiaris; settings: dog, 500 µM, dose 0.5 mM
# [6] = Selectivity ratio of substrate activity at PEPT1 (unknown origin) expressed in MDCK cells assessed as PEPT1 mediated drug uptake to drug uptake in MDCK cells
# [7] = biological target: T1, Sodium- and chloride-dependent neutral and basic amino acid transporter B(0+); assay: Substrate activity at SLC6A14 (unknown origin) expressed in Xenopus laevis oocytes assessed as inhibition of glycine uptake incubated for 10 mins by HPLC/MS/MS analysis; type: cell-based, Oocyte
# [8] = Half life of compound in PBS buffer at pH 7.4 at 200 uM by HPLC analysis; type: physicochemical
# [9] = Half life in rat plasma at 200 uM measured up to 120 mins by HPLC-MS/MS analysis; type: ADME, cell-free
# MDA-MB-231 = assay: Potency index, ratio of FUdR GI50 to test compound GI50 for growth inhibition of human MDA-MB-231 cells; type: functional
# [10] = Drug uptake in Xenopus laevis oocytes at 0.5 mM incubated for 10 mins by HPLC analysis; type: ADME, cell-based; settings: oocyte, 500 µM
# [11] = biological target: T2, Solute carrier family 15 member 1; assay: Substrate activity at PEPT1 (unknown origin) expressed in MDCK cells assessed as inhibition of gly-sar uptake incubated for 10 mins by HPLC/MS/MS analysis; type: cell-based
# MIA PaCa-2 = assay: Potency index, ratio of FUdR GI50 to test compound GI50 for growth inhibition of human MIA-PaCa-2 cells; type: functional
# [12] = Half life of compound in human MDA-MB-231 cell homogenate; type: ADME, tissue-based
# [13] = Selectivity ratio of substrate activity at SLC6A14 (unknown origin) expressed in Xenopus laevis oocytes assessed as ABT0+ mediated drug uptake to drug uptake in Xenopus laevis oocytes; set-up: species or system Oocyte
# thymidine phosphorylase = assay: Half life of compound in thymidine phosphorylase buffer at 300 uM by HPLC analysis; type: physicochemical
# [14] = biological target: T3, Sodium- and chloride-dependent neutral and basic amino acid transporter B(0+) (Homo sapiens) (UniProt Q9UN76); assay: Substrate activity at SLC6A14 (unknown origin) expressed in Xenopus laevis oocytes assessed as increase in ABT0+ mediated drug uptake at 1 mM in presence of Na+ ion by HPLC analysis; type: cell-based; settings: Oocyte
# T3 sequence (whole entry): T1 sequence (Q9UN76 whole entry)
# [15] = biological target: T3, Sodium- and chloride-dependent neutral and basic amino acid transporter B(0+) (Homo sapiens); assay: Substrate activity at SLC6A14 (unknown origin) expressed in Xenopus laevis oocytes assessed as inhibition of drug uptake at 0.5 mM incubated for 10 mins in presence of glycine by HPLC analysis relative to control; type: cell-based; settings: Oocyte
# [16] = biological target: T3, Sodium- and chloride-dependent neutral and basic amino acid transporter B(0+) (Homo sapiens); assay: Substrate activity at SLC6A14 (unknown origin) expressed in Xenopus laevis oocytes assessed as increase in ABT0+ mediated drug uptake at 1 mM in presence of Cl- ion by HPLC analysis; type: cell-based; settings: Oocyte
Structure (SMILES),Drug uptake [1],half-life [2],Drug uptake [3],half-life [4],Drug uptake [5],IC50 [7],half-life at 200 µM [8],half-life at 200 µM [9],Drug uptake [10],IC50 [11],half-life [12],half-life at 300 µM (thymidine phosphorylase),Activity [14],inhibition [15],Activity [16],RatioGI50 (ZR-75-1),Ratio [6],RatioGI50 (MDA-MB-231),RatioGI50 (MIA PaCa-2),Ratio [13]
CC(C)[C@H](N)C(=O)O[C@H]1C[C@H](n2cc(F)c(=O)[nH]c2=O)O[C@@H]1CO,1.56 nmol/mg/min,9.2 min,1.23 nmol/mg/min,12.2 min,0.43 nmol/mg/min,1630 µM,187 min,65.3 min,0.39 nmol/mg/min,1890 µM,14.9 min,368 min,,,,7,2.86,7,7,4
N[C@@H](CC(=O)OC[C@H]1O[C@@H](n2cc(F)c(=O)[nH]c2=O)C[C@@H]1OC(=O)C[C@H](N)C(=O)O)C(=O)O,1.12 nmol/mg/min,16.2 min,< 0.04 nmol/mg/min,11.3 min,< 0.04 nmol/mg/min,2980 µM,98.2 min,56.1 min,0.34 nmol/mg/min,,9.3 min,301 min,,,,7,1,7,7,3.29
CC(C)[C@H](N)C(=O)OC[C@H]1O[C@@H](n2cc(F)c(=O)[nH]c2=O)C[C@@H]1O,2.34 nmol/mg/min,16.4 min,1.78 nmol/mg/min,11.3 min,0.41 nmol/mg/min,980 µM,203 min,78.5 min,0.31 nmol/mg/min,1120 µM,15.3 min,408 min,Active,50%,Active,7,4.34,7,7,7.55

# Continued, in another order:
Drug uptake [1],half-life [2],Drug uptake [3],half-life [4],Drug uptake [5],IC50 [7],half-life at 200 µM [8],half-life at 200 µM [9],Drug uptake [10],IC50 [11],half-life [12],half-life at 300 µM (thymidine phosphorylase),Activity [14],inhibition [15],Activity [16],Structure (SMILES),RatioGI50 (ZR-75-1),Ratio [6],RatioGI50 (MDA-MB-231),RatioGI50 (MIA PaCa-2),Ratio [13]
1.89 nmol/mg/min,24.2 min,< 0.04 nmol/mg/min,32.1 min,< 0.04 nmol/mg/min,1570 µM,179 min,124 min,0.36 nmol/mg/min,13900 µM,19.3 min,278 min,,,,N[C@@H](CC(=O)O[C@H]1C[C@H](n2cc(F)c(=O)[nH]c2=O)O[C@@H]1CO)C(=O)O,7,1,7,7,5.25
1.04 nmol/mg/min,7.9 min,< 0.04 nmol/mg/min,10.2 min,< 0.04 nmol/mg/min,1840 µM,183 min,97.4 min,0.28 nmol/mg/min,13000 µM,8.3 min,289 min,,,,N[C@@H](CCC(=O)O[C@H]1C[C@H](n2cc(F)c(=O)[nH]c2=O)O[C@@H]1CO)C(=O)O,7,1,7,7,3.71
0.78 nmol/mg/min,14.3 min,< 0.04 nmol/mg/min,17.5 min,< 0.04 nmol/mg/min,2650 µM,109 min,67.9 min,0.32 nmol/mg/min,,21.1 min,235 min,,,,N[C@@H](CCC(=O)OC[C@H]1O[C@@H](n2cc(F)c(=O)[nH]c2=O)C[C@@H]1OC(=O)CC[C@H](N)C(=O)O)C(=O)O,7,1,7,7,2.44
2.12 nmol/mg/min,12.3 min,< 0.04 nmol/mg/min,20.1 min,< 0.04 nmol/mg/min,1130 µM,258 min,114 min,0.35 nmol/mg/min,11500 µM,17.3 min,256 min,Active,50%,Active,N[C@@H](CCC(=O)OC[C@H]1O[C@@H](n2cc(F)c(=O)[nH]c2=O)C[C@@H]1O)C(=O)O,7,1,7,7,6.23
1.03 nmol/mg/min,6.7 min,1.11 nmol/mg/min,8.4 min,0.44 nmol/mg/min,2010 µM,106 min,37.8 min,0.37 nmol/mg/min,2240 µM,10.1 min,257 min,,,,CC(C)[C@H](N)C(=O)OC[C@H]1O[C@@H](n2cc(F)c(=O)[nH]c2=O)C[C@@H]1OC(=O)[C@@H](N)C(C)C,7,2.63,7,7,2.78
